The source of these data is patent US20040166508A1, “Analytical platform and detection method with the analytes to be determined in a sample as immobilized specific binding partners, optionally after fractionation of said sample” (priority 2002, published 2004).

Each structure is given as a SMILES string.

This experiment relates to pErk2 (Phospho-p44/42 MAP kinase (Thr202/Tyr204)). Put plainly: Detection of pErk2 (phospho-p44/42 MAP kinase) in immobilized Jurkat cell lysates (antibody A3). The class given is cell-based, human. To be noted: Jurkat cells treated with 10 μM for 180 min. How it is done:
Human T-cell cultures (Jurkat, DMZ # ACC282) are utilized for the detection of biologically relevant protein analytes in “immobilization samples”. These cells are cultivated at 37° C. in a solution containing RPMI 1640, 10% FCS (fetal calf serum), 2 mM glutamine, 50 U/ml penicillin, 50 μg/ml streptamycine (cell density at about 0.5×10^6-1.0×10^6 cells/ml). […] A cell culture, which is similar to the one described above but not treated with antibodies, is used as a comparison sample and shall serve as a negative control in the analytical detection method. […] The cells here are simply separated from the medium, without damage to the cells. The supernatant is then decanted, and lysis buffer (7 M urea, 2 M thiourea, 4% CHAPS, 1% DTT, 4 mM spermidine and Complete (protease inhibitor, Roche AG, 1 tablet/50 ml) is added, the total protein concentration being adjusted to about 10 mg/ml. Thereby, all protein-containing cell components are denatured spontaneously and completely and solubilized. The samples obtained by the preparation steps described above are again diluted by a factor of 10 to a total protein concentration of about 1 mg/ml, and are then deposited in discrete measurement areas for generating an array of measurement areas on the evanescent field sensor platform provided with the adhesion-promoting layer. […]

With `CN[C@@H]1C[C@H]2O[C@@](C)([C@@H]1OC)n1c3ccccc3c3c4c(c5c6ccccc6n2c5c31)C(=O)NC4` [staurosporin, staurosporine], the “pErk2 signal of the nonstimulated control sample compared with the treated sample” value is reported as “only slightly higher”.
